Assay results from US9808445B2, “Factor IXa inhibitors” (Merck Sharp & Dohme Corp., priority 2014, dated 2017).

Target: human factor IXa (Homo sapiens (Human), UniProt P00740)
Assay: Determination of inhibitory activity against factor IXa (fluorogenic substrate SPECTROFLUOR FIXa)
Format: biochemical
Conditions: Factor IXa enzyme assay human
Experimental: Inhibitory activity against factor IXa was tested using the substrate SPECTROFLUOR FIXa (american diagnostica inc.; 500 West Avenue, Stamford, Conn. 06902 USA; Pr. No. 299F) and human factor IXa (american diagnostica inc.; Pr. No. 449b). Test substances were dissolved in buffer A (50 mM α,α,α-tris (hydroxymethyl) methylamine (Tris), 100 mM NaCl, 5 mM CaCl2, 15% (v/v) ethylene glycol, pH 8.0) were mixed with factor IXa (0.1 μg/ml final concentration). The enzyme reaction was started by addition of SPECTROFLUOR FIXa (100 μM final concentration). After incubation for 60 minutes at room temperature, the reaction was stopped by the addition of 20% (v/v) acetic acid solution, and then the fluorescence value was measured (Excitation Wavelength: 355 nm, Emission Wavelength; 460 nm) in a microtiter plate reader (ARVO 1420 Multilabel Counter; PerkinElmer).
The IC50 was calculated from a dilution series of the test substance with the aid of the software, Symyx Assay Explorer (Symyx Technologies, Inc.).

Chain of human factor IXa (P00740 227-461): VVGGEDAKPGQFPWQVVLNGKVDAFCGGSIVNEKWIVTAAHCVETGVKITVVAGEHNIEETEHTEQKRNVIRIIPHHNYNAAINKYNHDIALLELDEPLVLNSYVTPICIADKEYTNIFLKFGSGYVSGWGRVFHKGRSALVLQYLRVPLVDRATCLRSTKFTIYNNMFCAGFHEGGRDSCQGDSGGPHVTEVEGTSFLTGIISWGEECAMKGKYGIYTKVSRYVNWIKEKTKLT
Chain of human factor IXa (P00740 47-191 partner): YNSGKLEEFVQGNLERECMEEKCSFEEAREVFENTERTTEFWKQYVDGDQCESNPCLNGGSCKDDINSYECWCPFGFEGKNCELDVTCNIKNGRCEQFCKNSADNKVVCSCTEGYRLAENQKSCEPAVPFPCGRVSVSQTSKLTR

Row | Compound | IC50 [nM]
1 | Cc1cc2c(N)noc2c(N2C[C@@H]3CC[C@H]2[C@@H]3NC(=O)c2ccc(-c3cnc(C#N)nc3)cc2Cl)n1 (relative stereo) [Example 17, N-((1S*,4S*,7R*)-2-(3-Amino-5-methylisoxazolo[5,4-c]pyridin-7-yl)-2-azabicyclo[2.2.1]heptan-7-yl)-2-chloro-4-(2-cyanopyrimidin-5-yl)benzamide] | ≤ 100
2 | Cn1nc(-c2ccc(C(=O)N[C@@H]3[C@H]4CC[C@@H]3N(c3ncc(Cl)c5c(N)noc35)C4)c(Cl)c2)ccc1=O (relative stereo) [Example 24, N-((1S*,4S*,7R*)-2-(3-Amino-4-chloroisoxazolo[5,4-c]pyridin-7-yl)-2-azabicyclo[2.2.1]heptan-7-yl)-2-chloro-4-(1-methyl-6-oxo-1,6-dihydropyridazin-3-yl)benzamide] | ≤ 100
3 | Cn1cc(-c2ccc(C(=O)N[C@@H]3[C@H]4CC[C@@H]3N(c3nc(C#N)cc5c(N)noc35)C4)c(Cl)c2)ccc1=O (relative stereo) [Example 25, N-((1S*,4S*,7R*)-2-(3-Amino-5-cyanoisoxazolo[5,4-c]pyridin-7-yl)-2-azabicyclo[2.2.1]heptan-7-yl)-2-chloro-4-(1-methyl-6-oxo-1,6-dihydropyridin-3-yl)benzamide] | ≤ 100
4 | Cc1cc(N2C[C@@H]3CC[C@H]2[C@@H]3NC(=O)c2c(Cl)cc(-n3cnc(C)n3)cc2Cl)c2onc(N)c2c1 (relative stereo) [Example 3, N-((1S*,4S*,7R*)-2-(3-Amino-5-methylbenzo[d]isoxazol-7-yl)-2-azabicyclo[2.2.1]heptan-7-yl)-2,6-dichloro-4-(3-methyl-1H-1,2,4-triazol-1-yl)benzamide] | ≤ 100
5 | Cc1cc2c(N)noc2c(N2C[C@@H]3CC[C@H]2[C@@H]3NC(=O)c2ccc(-n3cc(CCO)nn3)cc2Cl)n1 (relative stereo) [Example 15, N-((1S*,4S*,7R*)-2-(3-Amino-5-methylisoxazolo[5,4-c]pyridin-7-yl)-2-azabicyclo[2.2.1]heptan-7-yl)-2-chloro-4-(4-(2-hydroxyethyl)-1H-1,2,3-triazol-1-yl)benzamide] | ≤ 100
6 | Cc1ncn(-c2cnc(C(=O)N[C@@H]3[C@H]4CC[C@@H]3N(c3ncc(Cl)c5c(N)noc35)C4)c(Cl)c2)n1 (single isomer, unassigned) [Example 29, N-((1S*,4S*,7R*)-2-(3-Amino-4-chloroisoxazolo[5,4-c]pyridin-7-yl)-2-azabicyclo[2.2.1]heptan-7-yl)-3-chloro-5-(3-methyl-1H-1,2,4-triazol-1-yl)picolinamide] | ≤ 100
7 | Cc1cc2c(N)noc2c(N2CC3CCC2C3NC(=O)c2ccc(-n3cnc(C)n3)cc2Cl)n1 (single isomer, unassigned) [Example 11.2, N-((1S*,4S*,7R*)-2-(3-Amino-5-methylisoxazolo[5,4-c]pyridin-7-yl)-2-azabicyclo[2.2.1]heptan-7-yl)-2-chloro-4-(3-methyl-1H-1,2,4-triazol-1-yl)benzamide] | ≤ 100
8 | Nc1noc2c(N3C[C@@H]4CC[C@H]3[C@@H]4NC(=O)c3ccc(-c4cncnc4)cc3Cl)ncc(Cl)c12 (relative stereo) [Example 9, N-((1S*,4S*,7R*)-2-(3-Amino-4-chloroisoxazolo[5,4-c]pyridin-7-yl)-2-azabicyclo[2.2.1]heptan-7-yl)-2-chloro-4-(pyrimidin-5-yl)benzamide] | ≤ 100
9 | Cc1ncn(-c2ccc(C(=O)N[C@@H]3[C@H]4CC[C@@H]3N(c3nccc5c(N)noc35)C4)c(Cl)c2)n1 (relative stereo) [Example 2, N-((1S*,4S*,7R*)-2-(3-Aminoisoxazolo[5,4-c]pyridin-7-yl)-2-azabicyclo[2.2.1]heptan-7-yl)-2-chloro-4-(3-methyl-1H-1,2,4-triazol-1-yl)benzamide] | ≤ 100
10 | Cc1cc2c(N)noc2c(N2C[C@@H]3CC[C@H]2[C@@H]3NC(=O)c2ccc(-n3cnnc3C(F)(F)F)cc2Cl)n1 (relative stereo) [Example 26, N-((1S*,4S*,7R*)-2-(3-Amino-5-methylisoxazolo[5,4-c]pyridin-7-yl)-2-azabicyclo[2.2.1]heptan-7-yl)-2-chloro-4-(3-(trifluoromethyl)-4H-1,2,4-triazol-4-yl)benzamide] | ≤ 100
11 | Nc1noc2c(N3C[C@@H]4CC[C@H]3[C@@H]4NC(=O)c3ccc(-c4ccc(=O)n(CCO)c4)cc3Cl)ncc(Cl)c12 (relative stereo) [Example 23, N-((1S*,4S*,7R*)-2-(3-Amino-4-chloroisoxazolo[5,4-c]pyridin-7-yl)-2-azabicyclo[2.2.1]heptan-7-yl)-2-chloro-4-(1-(2-hydroxyethyl)-6-oxo-1,6-dihydropyridin-3-yl)benzamide] | ≤ 100
12 | Cn1cc(-c2ccc(C(=O)N[C@@H]3[C@H]4CC[C@@H]3N(c3ncc(Cl)c5c(N)noc35)C4)c(Cl)c2)ccc1=O (relative stereo) [Example 18, N-((1S*,4S*,7R*)-2-(3-Amino-4-chloroisoxazolo[5,4-c]pyridin-7-yl)-2-azabicyclo[2.2.1]heptan-7-yl)-2-chloro-4-(1-methyl-6-oxo-1,6-dihydropyridin-3-yl)benzamide] | ≤ 100

Other lines, results leading:

Row | IC50 [nM] | Compound
13 | ≤ 100 | Nc1noc2c(N3C[C@@H]4CC[C@H]3[C@@H]4NC(=O)c3ccc(-n4cnnc4C(F)F)cc3Cl)ncc(Cl)c12 (relative stereo) [Example 16, N-((1S*,4S*,7R*)-2-(3-Amino-4-chloroisoxazolo[5,4-c]pyridin-7-yl)-2-azabicyclo[2.2.1]heptan-7-yl)-2-chloro-4-(3-(difluoromethyl)-4H-1,2,4-triazol-4-yl)benzamide]
14 | ≤ 100 | Nc1noc2c(N3C[C@@H]4CC[C@H]3[C@@H]4NC(=O)c3ccc(-n4cnnc4)cc3Cl)cccc12 (relative stereo) [Example 1, N-((1S*,4S*, 7R*)-2-(3-Aminobenzo[d]isoxazol-7-yl)-2-azabicyclo[2.2.1]heptan-7-yl)-2-chloro-4-(4H-1,2,4-triazol-4-yl)benzamide]
15 | ≤ 100 | Nc1noc2c(N3C[C@@H]4CC[C@H]3[C@@H]4NC(=O)c3ccc(-n4cnnc4)cc3)ncc(Cl)c12 (relative stereo) [Example 13, N-((1S*,4S*,7R*)-2-(3-Amino-4-chloroisoxazolo[5,4-c]pyridin-7-yl)-2-azabicyclo[2.2.1]heptan-7-yl)-4-(4H-1,2,4-triazol-4-yl)benzamide]
16 | 100 to 1000 | Nc1noc2c(N3CC4CCC3C4NC(=O)c3ccc(-n4cncn4)cc3Cl)ncc(Cl)c12 (single isomer, unassigned) [Example 8.2, N-((1S*,4S*,7R*)-2-(3-Amino-4-chloroisoxazolo[5,4-c]pyridin-7-yl)-2-azabicyclo[2.2.1]heptan-7-yl)-2-chloro-4-(1H-1,2,4-triazol-1-yl)benzamide]
17 | 100 to 1000 | Cc1ncn(-c2ccc(C(=O)NC3C4CCC3N(c3ncc(Cl)c5c(N)noc35)C4)c(Cl)c2)n1 (single isomer, unassigned) [Example 7.2, N-((1S*,4S*,7R*)-2-(3-Amino-4-chloroisoxazolo[5,4-c]pyridin-7-yl)-2-azabicyclo[2.2.1]heptan-7-yl)-2-chloro-4-(3-methyl-1H-1,2,4-triazol-1-yl)benzamide]
18 | ≤ 100 | Nc1noc2c(N3C[C@@H]4CC[C@H]3[C@@H]4NC(=O)c3ccc(-n4cnc(CCO)c4)cc3Cl)ncc(Cl)c12 (relative stereo) [Example 14, N-((1S*,4S*,7R*)-2-(3-Amino-4-chloroisoxazolo[5,4-c]pyridin-7-yl)-2-azabicyclo[2.2.1]heptan-7-yl)-2-chloro-4-(4-(2-hydroxyethyl)-1H-imidazol-1-yl)benzamide]
19 | ≤ 100 | Nc1noc2c(N3C[C@@H]4CC[C@H]3[C@@H]4NC(=O)c3ccc(-n4cnc5ncccc54)cc3Cl)ncc(Cl)c12 (relative stereo) [Example 22, N-((1S*,4S*,7R*)-2-(3-Amino-4-chloroisoxazolo[5,4-c]pyridin-7-yl)-2-azabicyclo[2.2.1]heptan-7-yl)-2-chloro-4-(1H-imidazo[4,5-b]pyridin-1-yl)benzamide]
20 | ≤ 100 | Nc1noc2c(N3C[C@@H]4CC[C@H]3[C@@H]4NC(=O)c3ccc(-n4cnc5ccccc54)cc3Cl)ncc(Cl)c12 (relative stereo) [Example 21, N-((1S*,4S*,7R*)-2-(3-Amino-4-chloroisoxazolo[5,4-c]pyridin-7-yl)-2-azabicyclo[2.2.1]heptan-7-yl)-4-(1H-benzo[d]imidazol-1-yl)-2-chlorobenzamide]
21 | ≤ 100 | Nc1noc2c(N3C[C@@H]4CC[C@H]3[C@@H]4NC(=O)c3ccc(-n4cnnc4)cc3Cl)ccc(Cl)c12 (relative stereo) [Example 5, N-((1S*,4S*,7R*)-2-(3-Amino-4-chlorobenzo[d]isoxazol-7-yl)-2-azabicyclo[2.2.1]heptan-7-yl)-2-chloro-4-(4H-1,2,4-triazol-4-yl)benzamide]
22 | ≤ 100 | Cc1ncn(-c2ccc(C(=O)NC3C4CCC3N(c3ncc(Cl)c5c(N)noc35)C4)c(Cl)c2)n1 (single isomer, unassigned) [Example 7.1, N-((1S*,4S*,7R*)-2-(3-Amino-4-chloroisoxazolo[5,4-c]pyridin-7-yl)-2-azabicyclo[2.2.1]heptan-7-yl)-2-chloro-4-(3-methyl-1H-1,2,4-triazol-1-yl)benzamide]
23 | ≤ 100 | Nc1noc2c(N3C[C@@H]4CC[C@H]3[C@@H]4NC(=O)c3ccc(-n4cnnc4)cc3Cl)ncc(Cl)c12 (relative stereo) [Example 6, N-((1S*,4S*,7R*)-2-(3-Amino-4-chloroisoxazolo[5,4-c]pyridin-7-yl)-2-azabicyclo[2.2.1]heptan-7-yl)-2-chloro-4-(4H-1,2,4-triazol-4-yl)benzamide]
